According to PubChem BioAssay (NCI):
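Following 48 hours of exposure in 96-well plates, responses at five concentrations were used to interpolate endpoints linearly. GI50 = concentration required for 50% inhibition of growth. The concentration for full growth arrest is given as TGI.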

Key:
Test in all cases: NCI-60 cell line screen, 48 h
[1] = tested on: MCF7 breast
[2] = tested on: MDA-N
[3] = tested on: NCI-H522 lung
[4] = tested on: PC-3 prostate
[5] = tested on: SK-MEL-5 melanoma
[6] = tested on: SK-OV-3 ovarian
[7] = tested on: SR leukemia
[8] = tested on: HS 578T breast
[9] = tested on: IGROV1 ovarian
[10] = tested on: SNB-75 CNS
[11] = tested on: UACC-257 melanoma

SMILES | TGI [1] | TGI [2] | TGI [3] | TGI [4] | TGI [5] | TGI [6] | TGI [7] | TGI [8] | TGI [9] | TGI [10] | TGI [11] | GI50 [8] | GI50 [9] | GI50 [1] | GI50 [4] | GI50 [5] | GI50 [10] | GI50 [11]
CCCN=C1NC(C)=CSC(Nc2ccccc2)=C1C#N | > 100 µM | > 100 µM | > 100 µM | > 100 µM | > 100 µM | > 100 µM | > 100 µM | – | – | – | – | – | – | – | – | – | – | –
CC(C)OC1=C(CC2(C)OCCO2)C(=O)C12OCCO2 | > 100 µM | – | > 100 µM | > 100 µM | > 100 µM | > 100 µM | – | > 100 µM | > 100 µM | > 100 µM | > 100 µM | – | – | – | – | – | – | –
O=c1c(O)c(-c2ccccc2)oc2c(CP(=O)(O)O)cccc12 | > 100 µM | > 100 µM | > 100 µM | > 100 µM | > 100 µM | > 100 µM | > 100 µM | – | > 100 µM | – | > 100 µM | – | – | – | – | – | – | –
O=C(O)c1cc(NCc2cc(O)ccc2O)ccc1O | > 100 µM | 55.1 µM | 40.7 µM | > 100 µM | > 100 µM | > 100 µM | – | > 100 µM | > 100 µM | > 100 µM | > 100 µM | – | – | – | – | – | – | –
Cc1ccc(C)n1-c1ccccc1C1C=Cn2c(=O)oc3c(OC(C)C)c(OC(C)C)c(O)c1c32 (configuration not stated) | > 100 µM | – | 75.5 µM | 93.9 µM | > 100 µM | > 100 µM | – | > 100 µM | > 100 µM | > 100 µM | > 100 µM | – | – | – | – | – | – | –
Cc1cc(C)[n+]2c(c1)C=CC2 | – | – | 49.5 µM | – | 43.1 µM | – | – | – | – | 41.9 µM | > 100 µM | – | – | – | – | – | – | –
COc1cc2nc(-c3cccs3)nc(N3CCN(c4ccccc4)CC3)c2cc1OC | > 100 µM | – | > 100 µM | > 100 µM | > 100 µM | > 100 µM | > 100 µM | > 100 µM | > 100 µM | > 100 µM | > 100 µM | – | – | – | – | – | – | –
COc1cc(C2c3cccc4cccc(c34)C3CCC(=O)N32)cc(OC)c1O (configuration not stated) | > 50 µM | > 50 µM | – | > 50 µM | – | > 50 µM | > 50 µM | – | > 50 µM | > 50 µM | > 50 µM | – | – | – | – | – | – | –
CCOC(=O)c1sc2nc(SC)nc3c2c1NCN3C | – | > 100 µM | – | > 100 µM | > 100 µM | 38.3 µM | – | 59.4 µM | 39.2 µM | 22.9 µM | > 100 µM | – | – | – | – | – | – | –
O=c1oc2ccccc2c(O)c1C(c1ccc(OCc2ccccc2)cc1)c1c(O)c2ccccc2oc1=O | > 100 µM | 59.4 µM | > 100 µM | > 100 µM | 60.1 µM | > 100 µM | – | > 100 µM | > 100 µM | 65.6 µM | > 100 µM | – | – | – | – | – | – | –
CC1(C)CC(=O)c2c(N)n[nH]c2C1 | > 100 µM | > 100 µM | > 100 µM | > 100 µM | > 100 µM | – | > 100 µM | – | > 100 µM | > 100 µM | > 100 µM | – | – | – | – | – | – | –
COC(=O)/C=C1\C(CO[Si](C)(C)C(C)(C)C)OC(n2cc(C)c(=O)n(C)c2=O)C1O[Si](C)(C)C(C)(C)C (configuration not stated) | > 100 µM | > 100 µM | > 100 µM | > 100 µM | > 100 µM | > 100 µM | – | > 100 µM | > 100 µM | > 100 µM | – | – | – | – | – | – | – | –
Clc1ccc(C2SCc3nc4ccccc4n32)cc1 (configuration not stated) | – | – | 44.4 µM | – | 23.3 µM | 69.9 µM | – | – | 55.9 µM | 24.9 µM | – | – | – | – | – | – | – | –
Cc1ccc(/C=c2\c(=O)[nH]c3nc4ccccc4c(=O)n23)cc1 | > 100 µM | 62.2 µM | > 100 µM | > 100 µM | – | > 100 µM | – | > 100 µM | – | 75.6 µM | > 100 µM | – | – | – | – | – | – | –
CCN(CC)/N=C\c1c2ccccc2cc2ccccc12 | – | > 100 µM | 63.7 µM | > 100 µM | 40.2 µM | > 100 µM | > 100 µM | > 100 µM | > 100 µM | 68.7 µM | 72.4 µM | – | – | – | – | – | – | –
CCOC(=O)Cc1[nH]c(C(=O)c2ccccc2)cc1C(=O)c1ccccc1 | > 10 µM | – | > 100 µM | > 10 µM | > 100 µM | > 100 µM | > 100 µM | > 100 µM | > 10 µM | > 100 µM | > 10 µM | – | – | – | – | – | – | –
CC1(C)C2CC3C(C)(C2)C31c1cc(Cl)ccc1N (configuration not stated) | 26.7 µM | 24.7 µM | 19.7 µM | 27 µM | 27.1 µM | 29 µM | 22 µM | – | 27.6 µM | 24.3 µM | 26.4 µM | – | – | – | – | – | – | –
COc1ccc(C2N(c3ccc(C)c(N=C=O)c3)C(=O)N3C(c4ccc(OC)cc4)N(c4ccc(C)c(N=C=O)c4)C(=O)N23)cc1 (configuration not stated) | > 100 µM | > 100 µM | – | > 100 µM | > 100 µM | – | > 100 µM | – | > 100 µM | > 100 µM | > 100 µM | – | – | – | – | – | – | –
Cc1nc(N)c(N2CCN(S(=O)(=O)N(Cc3ccccc3)Cc3ccccc3)CC2)c(=O)[nH]1 | > 100 µM | > 100 µM | – | 46.5 µM | – | – | > 100 µM | 69.8 µM | – | 28.6 µM | 61.5 µM | – | – | – | – | – | – | –
Cc1ccc2sc3c(NCCCN)nc4ccccc4c3c(=O)c2c1 | 3.36 µM | – | – | 3.4 µM | 3.35 µM | – | – | 5.19 µM | 3.26 µM | 3.56 µM | 4.21 µM | 2.05 µM | 1.61 µM | 1.77 µM | 1.71 µM | 1.79 µM | 1.64 µM | 2.04 µM
O=S(=O)(O)c1ccc(O)c(N=Nc2c(O)ccc3ccccc23)c1 | – | > 100 µM | > 100 µM | > 100 µM | > 100 µM | > 100 µM | – | > 100 µM | > 100 µM | > 100 µM | > 100 µM | – | – | – | – | – | – | –
OCc1ccc2c(c1)CC1(Cc3ccccc3C1)C2 | – | 20 µM | 72.1 µM | 33.5 µM | 23.6 µM | 84.8 µM | > 100 µM | 32.9 µM | – | 30.2 µM | 43 µM | – | – | – | – | – | – | –
